Earlier results in patent publication US20110046204A1, “Human Zip1, Zinc and Citrate for Prostate Cancer Screening” (University of Maryland, Balitmore, priority 2006, published 2011).
pKd: −log10 of the molar value.

Details: zinc-indicator dye TSQ; read-out: affinity for zinc (Kd)

pKd: ~8.00
SMILES: COc1cc(NS(=O)(=O)c2ccc(C)cc2)c2ncccc2c1 [TSQ]
